As a reminder, the Emax is the size of the effect at its maximum, as opposed to the concentration needed. The EC50 is the concentration giving half of the maximal effect. One may read the IC50 as the concentration at which inhibition is half-maximal. Lower therefore signals greater potency in that assay.

We go through 13 compounds from patent US20260035364A1, “BICYCLIC TETRAHYDROTHIAZEPINE DERIVATIVES” (Hoffmann-La Roche Inc., priority 2022, published 2026).

Read-outs that look alike come from different tables or passages of the source. A value given as a limit tells only on which side of the number the result lay.

In one experiment the test system is primary human T-cells. As to the kind of experiment: IL2 secretion measurements in CD3-stimulated T-cells. Particulars: CD3 condition; for Emax: read-out: Emax IL2 (% activation); for EC50: IL2 secretion after 24 hours, read-out: Tcell IL2 CD3 EC50. In kind it is cell-based. An outline of the steps:
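Expanded primary human T-cells (100k/well) were stimulated on CD3 antibody-coated or PBS-coated plates with compounds in 5–6 point dose response from 20 or 10 μM top final (dilution factor 3.333, 0.2% DMSO final). IL2 in 24 h supernatants was measured by ProQuantum immunoassay or ELISA, normalized to DMSO (0%) and 20 μM reference compound A1 (100%) to fit EC50 and Emax.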

In a further experiment the target is DGKalpha (Homo sapiens, UniProt P23743). In words: In vitro DGK inhibition assay (ADP-Glo, liposomes), DGKalpha. In kind it is biochemical. Also noted: hDGKalpha(1-735)-N-His; His (N); made in house; host or cells: Sf21 insect cells (baculovirus). To be noted: 4 nM DGK α, 25 μM ATP, 125 uM DLG in liposomes, 1 hour reaction. In short, it runs like this:
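Full-length human DGKα (4 nM) or DGKζ (2 nM) from Sf21 cells, with DLG substrate at 125 uM in PS/PC liposomes and ATP at 25 μM (α) or 50 μM (ζ); 1 h reaction. ADP formed read by ADP-Glo luminescence; compounds 11-point, 1:3 dilutions from 10 mM, 2% DMSO final.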

[1] abbreviates: Homo sapiens, T-cell, 24 h, IL2 after 24 hours, 20 μM reference compound A1 = 100%.

Chain of DGKalpha (P23743 whole entry): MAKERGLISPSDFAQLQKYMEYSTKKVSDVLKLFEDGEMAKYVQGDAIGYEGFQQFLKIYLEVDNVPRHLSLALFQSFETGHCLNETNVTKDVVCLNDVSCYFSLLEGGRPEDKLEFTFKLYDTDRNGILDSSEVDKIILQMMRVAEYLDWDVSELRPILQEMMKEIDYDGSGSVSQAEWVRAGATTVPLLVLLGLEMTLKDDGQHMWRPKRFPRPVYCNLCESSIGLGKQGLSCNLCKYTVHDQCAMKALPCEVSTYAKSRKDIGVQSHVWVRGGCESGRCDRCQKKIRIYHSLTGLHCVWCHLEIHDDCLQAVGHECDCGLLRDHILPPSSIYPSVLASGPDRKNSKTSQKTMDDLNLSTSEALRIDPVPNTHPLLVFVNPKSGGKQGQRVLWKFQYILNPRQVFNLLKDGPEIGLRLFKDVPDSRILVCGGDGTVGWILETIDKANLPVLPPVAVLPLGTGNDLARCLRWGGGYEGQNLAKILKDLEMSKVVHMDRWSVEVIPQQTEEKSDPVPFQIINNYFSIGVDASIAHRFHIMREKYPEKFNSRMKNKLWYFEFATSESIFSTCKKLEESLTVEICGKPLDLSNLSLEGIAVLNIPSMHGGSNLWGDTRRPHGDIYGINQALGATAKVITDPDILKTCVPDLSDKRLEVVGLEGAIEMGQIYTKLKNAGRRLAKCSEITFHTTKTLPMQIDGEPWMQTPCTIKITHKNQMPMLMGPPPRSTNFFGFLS

As for `COc1ccc(-c2ccc(CN3C(=O)[C@@H](N)CS(=O)(=O)c4ccc(-c5nnc(C(C)(C)S(C)(=O)=O)o5)cc43)cc2)c(C)c1` [Example 49, (3R)-3-amino-5-[[4-(4-methoxy-2-methyl-phenyl)phenyl]methyl]-7-[5-(1-methyl-1-methylsulfonyl-ethyl)-1,3,4-oxadiazol-2-yl]-1,1-dioxo-2,3-dihydro-1λ6,5-benzothiazepin-4-one], the Emax with primary human T-cells (setting [1]) came to 34%. Besides, the 50% effective concentration (EC50) in the experiment with primary human T-cells (Homo sapiens, T-cell, 24 h) was more than 10000 nM. At DGKalpha, this compound showed an IC50 of 11100 nM.

As for `CS(=O)(=O)C1(c2nnc(-c3ccc4c(c3)N(Cc3ccc(Oc5ccccc5)cc3)C(=O)[C@@H](N)CS4(=O)=O)o2)CC1` [Example 66, (3R)-3-amino-7-[5-(1-methylsulfonylcyclopropyl)-1,3,4-oxadiazol-2-yl]-1,1-dioxo-5-[(4-phenoxyphenyl)methyl]-2,3-dihydro-1λ6,5-benzothiazepin-4-one], the Emax in the experiment on primary human T-cells (setting [1]) came to 52%. Further, in the experiment with primary human T-cells (Homo sapiens, T-cell, 24 h), the EC50 came out at 9170 nM. Also, the IC50 against DGKalpha came to 10700 nM.

Take `COc1cc(Cl)cc(Oc2ccc(CN3C(=O)[C@@H](N)CS(=O)(=O)c4ccc(-c5nnc(C(C)(C)S(C)(=O)=O)o5)cc43)cc2)c1` [Example 41, (3R)-3-amino-5-[[4-(3-chloro-5-methoxy-phenoxy)phenyl]methyl]-7-[5-(1-methyl-1-methylsulfonyl-ethyl)-1,3,4-oxadiazol-2-yl]-1,1-dioxo-2,3-dihydro-1λ6,5-benzothiazepin-4-one]: in the experiment with primary human T-cells (setting [1]), the Emax turned out to be 115%. The EC50 in the experiment with primary human T-cells (Homo sapiens, T-cell, 24 h) was 1460 nM. The compound further came in with a 50% inhibitory concentration (IC50) against DGKalpha of 41000 nM.

Consider `CC(C)(c1nnc(-c2ccc3c(c2)N(Cc2ccc(SC(F)(F)F)cc2)C(=O)[C@@H](N)CS3(=O)=O)o1)S(C)(=O)=O` [Example 7], for which the Emax in the experiment on primary human T-cells (setting [1]) was determined as 94%. The EC50 in the experiment with primary human T-cells (Homo sapiens, T-cell, 24 h) stood at 2800 nM. Also, the IC50 at DGKalpha came to 2300 nM.

With `COc1cccc(Oc2ccc(CN3C(=O)[C@@H](N)CS(=O)(=O)c4ccc(-c5nnc(C(C)(C)S(C)(=O)=O)o5)cc43)cc2)c1` [Example 42], the Emax in the experiment with primary human T-cells (setting [1]) turned out to be 125%. Moreover, the EC50 with primary human T-cells (Homo sapiens, T-cell, 24 h) came to 3130 nM. This compound registered an IC50 on DGKalpha of 1160 nM.

For the compound `CC(C)(c1nnc(-c2ccc3c(c2)N(Cc2ccc(Oc4ccccc4)cc2)C(=O)[C@@H](N)CS3(=O)=O)o1)S(=O)(=O)C1CC1` [Example 61, (3R)-3-amino-7-[5-(1-cyclopropylsulfonyl-1-methyl-ethyl)-1,3,4-oxadiazol-2-yl]-1,1-dioxo-5-[(4-phenoxyphenyl)methyl]-2,3-dihydro-1λ6,5-benzothiazepin-4-one], in the experiment on primary human T-cells (setting [1]), the Emax was determined as 89%. For the same compound, the half-maximal effective concentration (EC50) with primary human T-cells (Homo sapiens, T-cell, 24 h) was 4210 nM. The compound also registered an IC50 against DGKalpha of 4770 nM.

Turning to `CC(C)(c1nc(-c2cc3c(cc2F)[S+]([O-])C[C@H](N)C(=O)N3Cc2ccc(Oc3ccccc3)cc2)no1)S(C)(=O)=O` (stereo partly drawn) [Example 52, (3R)-3-amino-8-fluoro-7-[5-(1-methyl-1-methylsulfonyl-ethyl)-1,2,4-oxadiazol-3-yl]-1-oxo-5-[(4-phenoxyphenyl)methyl]-2,3-dihydro-1λ4,5-benzothiazepin-4-one], the “Emax IL2 (% activation)” value in the experiment with primary human T-cells (IL2 after 24 hours, 20 μM reference compound A1 = 100%) is recorded as 253%. Moreover, the EC50 in the experiment with primary human T-cells was found to be 1170 nM. This compound also had a half-maximal inhibitory concentration (IC50) on DGKalpha of 1550 nM.

As for `CC(C)(c1nnc(-c2ccc3c(c2)N(Cc2ccc(Oc4cccc(Cl)c4Cl)cc2)C(=O)[C@@H](N)CS3(=O)=O)o1)S(C)(=O)=O` [Example 32, (3R)-3-amino-5-[[4-(2,3-dichlorophenoxy)phenyl]methyl]-7-[5-(1-methyl-1-methylsulfonyl-ethyl)-1,3,4-oxadiazol-2-yl]-1,1-dioxo-2,3-dihydro-1λ6,5-benzothiazepin-4-one], the Emax in the experiment with primary human T-cells (setting [1]) was determined as 82%. The EC50 in the experiment on primary human T-cells (Homo sapiens, T-cell, 24 h) stood at 1100 nM. Besides, 13400 nM corresponded to half-maximal inhibition against DGKalpha (IC50).

Consider `CC(C)(c1nnc(-c2ccc3c(c2)N(Cc2ccc(-c4ccc(C(F)(F)F)cc4)cc2)C(=O)[C@@H](N)CS3(=O)=O)o1)S(C)(=O)=O` [Example 56, (3R)-3-amino-7-[5-(1-methyl-1-methylsulfonyl-ethyl)-1,3,4-oxadiazol-2-yl]-1,1-dioxo-5-[[4-[4-(trifluoromethyl)phenyl]phenyl]methyl]-2,3-dihydro-1λ6,5-benzothiazepin-4-one], for which the Emax in the experiment on primary human T-cells (setting [1]) turned out to be 120%. Besides, in the experiment on primary human T-cells (Homo sapiens, T-cell, 24 h), the EC50 came out at 741 nM. The compound further had an IC50 against DGKalpha of 10100 nM.

In the case of `CC(C)(c1nnc(-c2ccc3c(c2)N(Cc2ccc(Oc4cccc(Cl)c4)cc2)C(=O)[C@@H](N)CS3(=O)=O)o1)S(C)(=O)=O` [Example 34, (3R)-3-amino-5-[[4-(3-chlorophenoxy)phenyl]methyl]-7-[5-(1-methyl-1-methylsulfonyl-ethyl)-1,3,4-oxadiazol-2-yl]-1,1-dioxo-2,3-dihydro-1λ6,5-benzothiazepin-4-one], the Emax in the experiment on primary human T-cells (setting [1]) is 89%. In addition, in the experiment on primary human T-cells (Homo sapiens, T-cell, 24 h), the EC50 was found to be 1000 nM. Besides, on DGKalpha, it took 20300 nM to reach half-maximal inhibition (IC50).

As to `CC(C)(c1nnc(-c2ccc3c(c2)N(Cc2ccc(Oc4cccc(OC(F)F)c4)cc2)C(=O)[C@@H](N)CS3(=O)=O)o1)S(C)(=O)=O` [Example 47, (3R)-3-amino-5-[[4-[3-(difluoromethoxy)phenoxy]phenyl]methyl]-7-[5-(1-methyl-1-methylsulfonyl-ethyl)-1,3,4-oxadiazol-2-yl]-1,1-dioxo-2,3-dihydro-1λ6,5-benzothiazepin-4-one], in the experiment with primary human T-cells (setting [1]), the maximum response (Emax) came out at 135%. The 50% effective concentration (EC50) in the experiment on primary human T-cells (Homo sapiens, T-cell, 24 h) turned out to be 1370 nM. Further, the midpoint of inhibition against DGKalpha, the IC50, lay at 1100 nM.

As to `COc1ccc(-c2ccc(CN3C(=O)[C@@H](N)CS(=O)(=O)c4ccc(-c5noc(C(C)(C)S(C)(=O)=O)n5)cc43)cc2)cc1` [Example 63, (3R)-3-amino-5-[[4-(4-methoxyphenyl)phenyl]methyl]-7-[5-(1-methyl-1-methylsulfonyl-ethyl)-1,2,4-oxadiazol-3-yl]-1,1-dioxo-2,3-dihydro-1λ6,5-benzothiazepin-4-one], in the experiment on primary human T-cells (setting [1]), the Emax worked out at 57%. The concentration giving a half-maximal response (EC50) in the experiment on primary human T-cells (Homo sapiens, T-cell, 24 h) was found to be 381 nM. The compound also gave an IC50 against DGKalpha of 58900 nM.

On to `CC1(c2nnc(-c3ccc4c(c3)N(Cc3ccc(Oc5ccccc5)cc3)C(=O)[C@@H](N)CS4(=O)=O)o2)CCCS1(=O)=O` (stereo partly drawn) [Example 58, (3R)-3-amino-7-[5-(2-methyl-1,1-dioxo-thiolan-2-yl)-1,3,4-oxadiazol-2-yl]-1,1-dioxo-5-[(4-phenoxyphenyl)methyl]-2,3-dihydro-1λ6,5-benzothiazepin-4-one], for which the Emax in the experiment with primary human T-cells (setting [1]) stood at 136%. Further, the EC50 in the experiment on primary human T-cells (Homo sapiens, T-cell, 24 h) is 2930 nM. Moreover, the IC50 against DGKalpha stood at 3380 nM.
